Legend:
[1] = system: T668 phosphorylation on APP; test: Ionomycin-induced T668 phosphorylation of APP in primary hippocampal neurons, Western blot; assay type: cell-based, rat; settings: for T668 phosphorylation induced by ionomycin: 20 μM inhibitor 15 min before 4 μM ionomycin for 5 hours
Method: Primary hippocampal neurons were cultured as described from E18 rat embryos (Niethammer et al. (2000) Neuron 28:697). 8-day old cultures were treated with different concentrations of ionomycin (Calbiochem). In some cases, hippocampal neurons were incubated with either 20 μM roscovitine (Calbiochem) or 20 μM butyrolactone (Calbiochem) for 15 min at 37° C. before being treated with 4 μM ionomycin for 5 hours. Neurons were lysed in SDS sample buffer and lysates were separated on a 12% acrylamide gel and analyzed by Western blotting.
To determine if neurotoxic conditions influence APP phosphorylation, primary hippocampal neurons were treated with ionomycin.

[2] = system: T668 phosphorylation of APP; test: T668 phosphorylation of full length APP in HSV-APP infected rat cortical neurons, Western blot; settings: rat cortical neurons expressing WT APP via HSV, inhibitor 8 hours
rat cortical neurons = test: MTT cell viability of rat cortical neurons expressing WT APP; assay type: cell-based; settings: rat cortical neurons expressing WT APP via HSV
[3] = system: secreted Aβ(1-40) and Aβ(1-42); test: Aβ secreted by rat primary cortical neurons infected with HSV expressing WT APP, sandwich ELISA; assay type: cell-based; settings: rat cortical neurons expressing WT APP via HSV, inhibitor 8 hours, dose-dependent, P<0.05
[4] = system: APP subcellular distribution; test: Distribution of WT APP in iodixanol step gradient of primary cortical neuron homogenates; assay type: cell-based, rat; settings: roscovitine 15 μM for 8 hr (FIG. 18D)
Text: FIGS. 18A-18D depict co-fractionation of T668 phosphorylated APP with BACE1 and endosome markers. (A) Adult mouse brain lysate was fractionated through an iodixanol step gradient. […] (B) Quantification of protein distribution of A (fractions 1-20) showing that full length P-APP co-fractionates with BACE1. (C) Distribution of WT and T668A APP, expressed in rat primary cortical neurons using recombinant herpes simplex virus (HSV), in an iodixanol step gradient. The distribution pattern of BACE1 resembled that of WT APP. (D) Distribution of WT APP in an iodixanol step gradient after roscovitine treatment (15 μM for 8 hr).
FIGS. 25A-25B depict immunoblots showing distribution of APP and BACE1 in iodixanol step gradient. […] Twenty hours post infection, cell homogenates were fractionated through an iodixanol step gradient and the distributions of APP and BACE1 were analyzed. […] Cell homogenates were fractionated and the distributions of APP and BACE1 were analyzed by Western blot analysis.
To assess the significance of T668 phosphorylation in APP subcellular localization, WT APP and the T668A mutant APP were introduced into primary cortical neurons using recombinant herpes simplex virus (HSV). Twenty hours post infection, cell homogenates were fractionated through iodixanol step gradient and the distribution of APP in the collected fractions was analyzed. […]

[5] = system: secreted Aβ(1-40) and Aβ(1-42); test: Aβ secreted into media by primary neurons from APP(Sw) Tg mice, sandwich ELISA; assay type: cell-based, mouse; settings: roscovitine 8 hours
Method: FIGS. 7A-7F depict that inhibition of Cdk5 reduces Aβ generation in a Tg mouse model of AD. (A) Inhibition of Cdk5 lead to a decrease in Aβ secretion. Primary mixed hippocampal and cortical neurons were cultured from E17 APP (Swedish) (Sw) Tg mice. 4-day-cultured neurons were treated with the indicated concentration of roscovitine for 8 hours and assayed for the level of Aβ(1-40) secreted into the media. The level of secreted Aβ(1-40) was normalized against the untreated control. The data are the averages (±s.d.) from four independent experiments. (B) As in (A), but the level of Aβ(1-42) in the media was assayed instead. (C) Cell viability was measured using the MTT assay. Cell viability was normalized against the untreated control. […] (F) Cell viability was measured using the MTT assay.
Primary cortical neurons were cultured from E15 APP(Sw) Tg mice (Tg2576) (Hsiao et al. (1996) Science 274:99) as described (Niethammer et al. (2000) Neuron 28:697). […] Aβ secreted into the media from each culture was analyzed by sandwich ELISA (Biosource) according to specifications by the manufacturer. Cell viability was measured by treating neurons with MTT (Sigma) at a final concentration of 0.5 mg/ml for 1 hour. After MTT treatment, cell medium was replaced with DMSO and the optical density of at 495 nm was determined.

[6] = system: primary neurons from APP(Sw) Tg mice; test: MTT cell viability of primary neurons from APP(Sw) Tg mice; assay type: cell-based, mouse; settings: roscovitine 8 hours
Method: Primary cortical neurons were cultured from E15 APP(Sw) Tg mice (Tg2576) (Hsiao et al. (1996) Science 274:99) as described (Niethammer et al. (2000) Neuron 28:697). 4-day-cultured neurons were replaced with new media (DMEM/F 12) and treated with different concentrations of roscovitine (Calbiochem) for 8 hours, or with butyrolactone (Calbiochem) for 16 hours. Aβ secreted into the media from each culture was analyzed by sandwich ELISA (Biosource) according to specifications by the manufacturer. Cell viability was measured by treating neurons with MTT (Sigma) at a final concentration of 0.5 mg/ml for 1 hour. After MTT treatment, cell medium was replaced with DMSO and the optical density of at 495 nm was determined.

SMILES	T668 phosphorylation on APP ([1]; primary hippocampal neurons treated with ionomycin)	T668 phosphorylation induced by ionomycin [1]	T668 phosphorylation [2]	cell viability, MTT assay (rat cortical neurons)	levels of secreted Aβ(1-40) [3]	levels of secreted Aβ(1-42) [3]	APP distribution in iodixanol step gradient [4]	secreted beta-amyloid (1-40) (Aβ(1-40)) levels [5]	secreted beta-amyloid (1-42) (Aβ(1-42)) levels [5]	cell viability, MTT assay [6]
C[C@H](CCC(=O)O)C[C@H](C)C[C@H](C)C(=O)/C=C(\O)[C@H](C)C[C@H](C)C/C=C/[C@@H](C)[C@@H](O)[C@@H](C)[C@@H](O)C[C@@H]1CC[C@@](C)([C@H]2CC[C@@](C)([C@@H](C)O)O2)O1 [Ionomycin, ionomycin]	marked elevation	–	–	–	–	–	–	–	–	–
O=C1CCCO1 [butyrolactone]	–	inhibited	substantial decreases	not due to a decline in cell viability	significantly reduced	significantly reduced	–	–	–	–
CC[C@H](CO)Nc1nc(NCc2ccccc2)c2ncn(C(C)C)c2n1 [roscovitine]	–	inhibited	substantial decreases	not due to a decline in cell viability	significantly reduced	significantly reduced	shifted to heavier membrane fractions	dose-dependent decrease	also reduced	not due to a decline in cell viability
